According to patent publication US20260007644A1, “NIMODIPINE COMPOSITION FREE OF ETHANOL AND PHOSPHOLIPID FOR MOIST HEAT STERILIZATION AND METHOD FOR PREPARING SAME” (BEIJING DELIVERY PHARMACEUTICAL TECHNOLOGY CO., LTD, priority 2022, published 2026):

What was measured:
[1] = cited from earlier work
[2] = Description / appearance of the concentrates (visual inspection); assay type: physicochemical; settings: 1.00 g active ingredient, HS15 45.00 g, propylene glycol 54.00 g, sterilized at 121° C. for 15 minutes
Experimental: The formation of solution upon dilution with 5% dextrose injection and the stability of the diluted solutions (the concentration of nimodipine is 0.1 mg/mL) were observed.
According to the Guidelines for the Stability Testing of Drug Substances and Preparations in Section 9001 of the General Notices, Pharmacopoeia of the People's Republic of China 2020, Volume IV, the concentrates prepared in Example 10 were tested at a temperature of 60° C. or under the light with an intensity of 5000 Lux, and sampled at the end of the 5th, 10th and 30th days to examine the specified items. • 1.
Method: visual inspection.

Row | Compound | solubility in water [1] | formation of a clear and transparent solution in the system of HS15 and propylene glycol [2]
1 | COCCOC(=O)C1=C(C)NC(C)=C(C(=O)OC(C)C)C1c1cccc([N+](=O)[O-])c1 (racemic) [Nimodipine, 1-methylethyl 2-methoxyethyl (±)-2,6-dimethyl-4-(3-nitrophenyl)-1,4-dihydropyridine-3,5-dicarboxylate] | insoluble in water | –
2 | C=C1CC[C@@H]2[C@](C)(CO)[C@H](O)CC[C@@]2(C)[C@@H]1C/C=C1/C(=O)OC[C@H]1O [andrographolide] | – | failed to form clear and transparent solutions
3 | CC[C@@H]([C@H](C)O)n1ncn(-c2ccc(N3CCN(c4ccc(OC[C@@H]5CO[C@@](Cn6cncn6)(c6ccc(F)cc6F)C5)cc4)CC3)cc2)c1=O [posaconazole] | – | failed to form clear and transparent solutions
4 | COc1cc([C@@H]2c3cc4c(cc3[C@@H](O[C@@H]3O[C@@H]5CO[C@@H](c6cccs6)O[C@H]5[C@H](O)[C@H]3O)[C@H]3COC(=O)[C@H]23)OCO4)cc(OC)c1O [teniposide] | – | failed to form clear and transparent solutions
5 | ginsenoside | – | failed to form clear and transparent solutions
